The values below come from patent US9057727B2, “Screening methods using G-protein coupled receptors and related compositions” (The General Hospital Corporation, priority 2007, dated 2015).

Assay [1] addresses T1, rat PTHR (Rattus norvegicus, UniProt P25961).
T1 sequence (P25961 27-591): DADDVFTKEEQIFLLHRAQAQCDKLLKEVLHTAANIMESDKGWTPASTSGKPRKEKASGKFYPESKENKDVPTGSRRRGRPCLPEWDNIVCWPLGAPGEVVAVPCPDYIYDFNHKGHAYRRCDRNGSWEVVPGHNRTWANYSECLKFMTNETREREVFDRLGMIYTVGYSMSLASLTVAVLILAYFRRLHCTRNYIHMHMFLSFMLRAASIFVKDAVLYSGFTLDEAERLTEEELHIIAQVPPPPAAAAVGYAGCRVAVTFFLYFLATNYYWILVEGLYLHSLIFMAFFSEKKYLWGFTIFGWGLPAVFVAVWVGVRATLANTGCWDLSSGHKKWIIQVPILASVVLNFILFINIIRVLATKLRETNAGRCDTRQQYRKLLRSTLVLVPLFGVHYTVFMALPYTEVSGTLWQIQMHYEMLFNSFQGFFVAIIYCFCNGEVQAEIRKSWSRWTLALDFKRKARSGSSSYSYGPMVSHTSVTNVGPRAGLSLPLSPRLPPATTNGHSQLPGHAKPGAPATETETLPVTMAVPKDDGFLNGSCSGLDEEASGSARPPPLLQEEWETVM
Put plainly: cAMP formation in HEK-293 cells transfected with rat PTHR. The assay is classed as cell-based. Particulars: versus M-PTH(1-28). From the text:
(§1) To impair PLC signaling, we replaced alanine at position 1 of M-PTH(1-28) with tryptophan, in accordance with findings of Bisello and colleagues (J Biol Chem 277:38524-30, 2002) showing that such bulky substitutions at this position selectively impair PLC signaling.

Assay [2] deals with T1, rat PTHR. Put plainly: IP3 formation in HEK-293 cells transfected with rat PTHR. As to conditions: versus M-PTH(1-28). The assay is classed as cell-based.
Description: as §1

Another assay deals with MC3T3-E1 cells. Put plainly: Prolonged cAMP response after ligand wash-out in MC3T3-E1 cells. The assay is classed as cell-based.
Description: as §1

A short description of assay [3]: Plasma phosphate in mice (20 nmol/kg). The assay is classed as in vivo.
Description: as §1

For the next assay, the system named is NaPi-IIa. Put plainly: NaPi-IIa staining in renal PT cells of injected mice. Particulars: mouse, in vivo.
Description: To help elucidate further the signaling mechanisms by which PTH ligands regulate renal phosphate transport, we developed a derivative of M-PTH(1-28) that is defective for PLC/PKC signaling, yet retains potent cAMP/PKA signaling activity. Such a peptide allows for study of the relative roles of the PKA and PKC signaling pathways in modulating the function and surface expression of the Pi transporters NaPi-IIa and NaPi-IIc in proximal tubule (PT) cells. The analog M-PTH(1-28) (M=Ala^1,Aib^3,Gln^10, Har^11,Trp^14,Arg^19), a potent agonist for cAMP and IP3 signaling pathways, induces, when injected into mice, prolonged hypophosphatemic and hypercalcemic effects.
as §1

A further assay concerns NaPi-IIc. Put plainly: NaPi-IIc immunostaining in renal PT cells of injected mice. The format is in vivo. Particulars: interval 4 to 6 h.
Description: as §1

The subject of assay [4] is LLC-PK1 cells expressing NaPi-IIc transporter and the rat PTHR. Put plainly: 32P uptake in LLC-PK1 cells expressing NaPi-IIc transporter and rat PTHR. The assay is classed as cell-based.
Description: as §1

Trp^1-M-PTH(1-28): the “potency for stimulating cAMP formation, in words” value with rat PTHR [1] is “about as potent as M-PTH(1-28)”. Also, the “fold less potent than parent peptide for stimulating IP3 formation” value in the assay with rat PTHR [2] is on record as “at least 100 fold”. Besides, the “cAMP response after ligand wash-out, in words” value in the assay on MC3T3-E1 cells is on record as “retained the capacity to produce a prolonged cAMP response”. Also, in assay [3], the “time of maximal suppression of plasma phosphate” value is given as 2 h and the “time of recovery of plasma phosphate to vehicle control levels” value came out at 6 h. The “apical and cytoplasmic NaPi-IIa staining, in words” value in the assay on NaPi-IIa is recorded as “remained reduced for at least six hours”. In the assay with NaPi-IIc, the “NaPi-IIc immunostaining, in words” value is given as “unchanged”. The “^32P uptake, in words” value in assay [4] is “failed to inhibit”.
